{"source": "ChEMBL document CHEMBL4831514", "about": "“Novel betulin dicarboxylic acid ester derivatives as potent antiviral agents: Design, synthesis, biological evaluation, structure-activity relationship and in-silico study” (Eur J Med Chem, 2021)", "key": {"[1]": {"system": "Human alphaherpesvirus 1", "assay": "Antiviral activity against Human herpesvirus-1 MacIntyre infected in A549 cells assessed as inhibition of viral adsorption at early stage of replication treated for 1 hr during viral infection followed by replacement with fresh medium and measured after 48 hrs by MTT assay", "type": "functional, organism-based"}, "[2]": {"system": "Enterovirus E", "assay": "Potency index, ratio of […] EC50 to test compound EC50 for antiviral activity against Enterovirus E LCR-4 infected in A549 cells assessed as reduction in virus titer preincubated for 24 hrs followed by viral infection and measured after 72 hrs by microscopic analysis", "type": "functional", "details": "time 96 hrs"}, "[3]": {"system": "Vesicular stomatitis virus", "assay": "Antiviral activity against Vesicular stomatitis virus Indiana infected in A549 cells assessed as reduction in virus titer preincubated for 24 hrs followed by viral infection and measured after 72 hrs by microscopic analysis", "type": "functional, organism-based"}, "[4]": {"system": "Human adenovirus 5", "assay": "Antiviral activity against Human adenovirus 5 Adenoid 75 infected in A549 cells assessed as inhibition of viral adsorption at early stage of replication treated for 1 hr during viral infection followed by replacement with fresh medium and measured after 72 hrs by MTT assay", "type": "functional, organism-based"}, "[5]": {"assay": "Selectivity index, ratio of CC50 for cytotoxicity against human A549 cells to EC50 for antiviral activity against Enterovirus E LCR-4 infected in A549 cells", "type": "toxicity, cell-based", "details": "read-out: Selectivity Index"}, "[6]": {"system": "Enterovirus E", "assay": "Antiviral activity against Enterovirus E LCR-4 infected in A549 cells assessed as inhibition of viral adsorption at early stage of replication treated for 1 hr during viral infection followed by replacement with fresh medium and measured after 72 hrs by MTT assay", "type": "functional, organism-based"}, "[7]": {"assay": "(§1) Cytotoxicity against human A549 cells assessed as reduction in cell viability incubated for 48 hrs by MTT assay", "type": "cell-based", "details": "A549 cells"}, "[8]": {"system": "A549", "assay": "as §1", "type": "cell-based", "details": "a549, 48 h"}, "[9]": {"system": "Human adenovirus 5", "assay": "Antiviral activity against Human adenovirus 5 Adenoid 75 infected in A549 cells assessed as reduction in virus titer preincubated for 24 hrs followed by viral infection and measured after 72 hrs by microscopic analysis", "type": "functional, organism-based"}, "[10]": {"system": "Human alphaherpesvirus 1", "assay": "Antiviral activity against Human herpesvirus 1 MacIntyre infected in A549 cells assessed as reduction in virus titer preincubated for 24 hrs followed by viral infection and measured after 72 hrs by microscopic analysis", "type": "functional, organism-based"}, "[11]": {"system": "Enterovirus E", "assay": "Antiviral activity against Enterovirus E LCR-4 infected in A549 cells assessed as reduction in virus titer preincubated for 24 hrs followed by viral infection and measured after 72 hrs by microscopic analysis", "type": "functional, organism-based", "details": "LCR-4, A549"}, "[12]": {"system": "MDCK", "assay": "Cytotoxicity against MDCK cells assessed as reduction in cell viability incubated for 72 hrs by MTT assay", "type": "cell-based, Canis lupus familiaris", "details": "dog, mdck, 72 h"}, "[13]": {"system": "Enterovirus E", "assay": "(§2) Antiviral activity against Enterovirus E LCR-4 infected in A549 cells assessed as reduction in virus titer treated 1 hr post viral infection followed by replacement with fresh medium with compounds and measured after 72 hrs by MTT assay", "type": "functional, organism-based", "details": "LCR-4, A549"}, "[14]": {"assay": "as §2, with “Selectivity index, ratio of CC50 for cytotoxicity against human A549 cells to EC50 for antiviral” for “Antiviral”", "type": "toxicity, cell-based", "details": "read-out: Selectivity Index"}, "[15]": {"system": "Enterovirus E", "assay": "as §2, with “Potency index, ratio of ribavirin EC50 to test compound EC50 for antiviral” for “Antiviral”", "type": "functional"}, "[16]": {"system": "Human alphaherpesvirus 1", "assay": "(§3) Antiviral activity against Human herpesvirus 1 MacIntyre infected in A549 cells assessed as reduction in virus titer treated 1 hr post viral infection followed by replacement with fresh medium with compounds and measured after 48 hrs by MTT assay", "type": "functional, organism-based", "details": "Human alphaherpesvirus 1, MacIntyre"}, "[17]": {"assay": "as §3, with “Selectivity index, ratio of CC50 for cytotoxicity against human A549 cells to EC50 for antiviral” for “Antiviral”, “72” for “48”", "type": "toxicity, cell-based", "details": "read-out: Selectivity Index"}}, "note": "Active and inactive are the calls of the source. The rule behind the calls is not given here."}
{"smiles": "C=C(C)[C@@H]1CC[C@]2(COC(=O)c3cccc(C(=O)N4CCCCC4)c3)CC[C@]3(C)[C@H](CC[C@@H]4[C@@]5(C)CC[C@H](O)C(C)(C)[C@@H]5CC[C@]43C)[C@@H]12", "values": [{"measurement": "Activity", "setting": "[1]", "result": "inactive"}, {"measurement": "Ratio EC50", "setting": "[2]", "result": 3}, {"measurement": "Activity", "setting": "[3]", "result": "inactive"}, {"measurement": "Activity", "setting": "[4]", "result": "inactive"}, {"measurement": "selectivity ratio", "setting": "[5]", "result": 8.2}, {"measurement": "Activity", "setting": "[6]", "result": "inactive"}, {"measurement": "CC50 at 48 h", "setting": "[7]", "result": 536, "unit": "µM"}, {"measurement": "CC20", "setting": "[8]", "result": 130.89, "unit": "µM"}, {"measurement": "Activity", "setting": "[9]", "result": "inactive"}, {"measurement": "Activity", "setting": "[10]", "result": "inactive"}, {"measurement": "EC50", "setting": "[11]", "result": 65.4, "unit": "µM"}, {"measurement": "CC20", "setting": "[12]", "result": 130.89, "unit": "µM"}]}
{"smiles": "C=C(C)[C@@H]1CC[C@]2(COC(=O)/C=C(\\C)C(=O)N3CCOCC3)CC[C@]3(C)[C@H](CC[C@@H]4[C@@]5(C)CC[C@H](O)C(C)(C)[C@@H]5CC[C@]43C)[C@@H]12", "values": [{"measurement": "Activity", "setting": "[1]", "result": "inactive"}, {"measurement": "Activity", "setting": "[3]", "result": "inactive"}, {"measurement": "EC50", "setting": "[13]", "result": 37.8, "unit": "µM"}, {"measurement": "Activity", "setting": "[4]", "result": "inactive"}, {"measurement": "selectivity ratio at 72 h", "setting": "[14]", "result": 3}, {"measurement": "Activity", "setting": "[6]", "result": "inactive"}, {"measurement": "CC50 at 48 h", "setting": "[7]", "result": 114, "unit": "µM"}, {"measurement": "CC20", "setting": "[8]", "result": 37.82, "unit": "µM"}, {"measurement": "Activity", "setting": "[9]", "result": "inactive"}, {"measurement": "Ratio EC50", "setting": "[15]", "result": 3}, {"measurement": "Activity", "setting": "[10]", "result": "inactive"}, {"measurement": "CC20", "setting": "[12]", "result": 37.82, "unit": "µM"}]}
{"smiles": "C=C(C)[C@@H]1CC[C@]2(COC(=O)CCCCCCCCCC(=O)O)CC[C@]3(C)[C@H](CC[C@@H]4[C@@]5(C)CC[C@H](O)C(C)(C)[C@@H]5CC[C@]43C)[C@@H]12", "values": [{"measurement": "Activity", "setting": "[1]", "result": "inactive"}, {"measurement": "Activity", "setting": "[3]", "result": "inactive"}, {"measurement": "EC50", "setting": "[13]", "result": 10.3, "unit": "µM"}, {"measurement": "Activity", "setting": "[4]", "result": "inactive"}, {"measurement": "selectivity ratio at 72 h", "setting": "[14]", "result": 2.9}, {"measurement": "Activity", "setting": "[6]", "result": "inactive"}, {"measurement": "CC50 at 48 h", "setting": "[7]", "result": 29.4, "unit": "µM"}, {"measurement": "CC20", "setting": "[8]", "result": 5.09, "unit": "µM"}, {"measurement": "Activity", "setting": "[9]", "result": "inactive"}, {"measurement": "Ratio EC50", "setting": "[15]", "result": 10}, {"measurement": "Activity", "setting": "[10]", "result": "inactive"}, {"measurement": "CC20", "setting": "[12]", "result": 10.2, "unit": "µM"}]}
{"smiles": "NC(=O)c1ncn([C@@H]2O[C@H](CO)[C@@H](O)[C@H]2O)n1", "note": "[RIBAVIRIN]", "values": [{"measurement": "Activity", "setting": "[1]", "result": "inactive"}, {"measurement": "EC50", "setting": "[13]", "result": 102, "unit": "µM"}, {"measurement": "Activity", "setting": "[4]", "result": "inactive"}, {"measurement": "selectivity ratio at 72 h", "setting": "[14]", "result": 74.3}, {"measurement": "Activity", "setting": "[6]", "result": "inactive"}, {"measurement": "CC50 at 48 h", "setting": "[7]", "result": 7610, "unit": "µM"}, {"measurement": "CC20", "setting": "[8]", "result": 409.84, "unit": "µM"}]}
{"smiles": "C#CCNC(=O)c1ccccc1C(=O)OC[C@]12CC[C@@H](C(=C)C)[C@@H]1[C@H]1CC[C@@H]3[C@@]4(C)CC[C@H](O)C(C)(C)[C@@H]4CC[C@@]3(C)[C@]1(C)CC2", "values": [{"measurement": "Activity", "setting": "[1]", "result": "inactive"}, {"measurement": "Ratio EC50", "setting": "[2]", "result": 11}, {"measurement": "Activity", "setting": "[3]", "result": "inactive"}, {"measurement": "Activity", "setting": "[4]", "result": "inactive"}, {"measurement": "selectivity ratio", "setting": "[5]", "result": 8}, {"measurement": "Activity", "setting": "[6]", "result": "inactive"}, {"measurement": "CC50 at 48 h", "setting": "[7]", "result": 159, "unit": "µM"}, {"measurement": "CC20", "setting": "[8]", "result": 39.81, "unit": "µM"}, {"measurement": "Activity", "setting": "[9]", "result": "inactive"}, {"measurement": "Activity", "setting": "[10]", "result": "inactive"}, {"measurement": "EC50", "setting": "[11]", "result": 19.9, "unit": "µM"}, {"measurement": "CC20", "setting": "[12]", "result": 159.24, "unit": "µM"}]}
{"smiles": "Nc1nc2c(ncn2COCCO)c(=O)[nH]1", "note": "[ACYCLOVIR]", "values": [{"measurement": "EC50", "setting": "[16]", "result": 111, "unit": "µM"}, {"measurement": "Activity", "setting": "[1]", "result": "inactive"}, {"measurement": "Activity", "setting": "[4]", "result": "inactive"}, {"measurement": "selectivity ratio", "setting": "[5]", "result": 7}, {"measurement": "selectivity ratio at 72 h", "setting": "[17]", "result": 14}, {"measurement": "Activity", "setting": "[6]", "result": "inactive"}, {"measurement": "CC50 at 48 h", "setting": "[7]", "result": 1560, "unit": "µM"}, {"measurement": "CC20", "setting": "[8]", "result": 196.08, "unit": "µM"}]}
